Here are results for one molecule from patent US8278303B2, “Phosphine transition metal complex, process for producing same, and anticancer agent” (Nippon Chemical Industrial Co., Ltd., priority 2006, dated 2012).

This assay concerns Human acute myelocytic leukemia cells HL-60. The assay is described as follows: Inhibitory activity on tumor cells, viable cell count by modified Mosmann (MTT) method. The format is cell-based. The following applies: HL-60 cells, 50,000 cells/well, 24 hours culture with compound, then MTT 3 hours; average of at least triplicate; read-out: IC50 (fifty percent inhibitory concentration). As for the experimental part:
The cells were washed with PBS.
Formazan crystals formed by the enzyme activity of mitochondria in the cells were dissolved in 0.04 mol/HCl/isopropyl alcohol.

`CP(c1nc2ccccc2nc1P(C)C(C)(C)C)C(C)(C)C.CP(c1nc2ccccc2nc1P(C)C(C)(C)C)C(C)(C)C.[Au+].[Cl-]` (stereo not shown) [Example 1, bis(2,3-bis(t-butylmethylphosphino)quinoxaline)gold (I) chloride]: the IC50 came out at 517 nM.
